Measurements reported in patent publication US12358912B2 (ASCENTAGE PHARMA (SUZHOU) CO., LTD., priority 2020, dated 2025).

Key:
Assay type in all cases: physicochemical
[1] = Suspension competitive test between Crystalline Form III and Crystalline Form XVIII (EtOAc, MTBE, n-butyl alcohol; solid tested by XRPD); conditions: for interconversion rate of crystalline form III and crystalline form XVIII: suspension stirring 7 days; for Crystalline Form: solid by XRPD after suspension stirring 7 days
[2] = Stability test (1): physical and chemical stability by XRPD and HPLC at 80° C., 40° C./75% RH and 25° C./60% RH; conditions: for chemical stability: degradation (HPLC purity) / physical stability: crystalline form (XRPD): 80° C. (sealed) 24 hours, 40° C./75% RH and 25° C./60% RH (open) 1 week; for purity (area %): HPLC
Protocol: (sealed) for 24 hours, at 40° C./75% RH and 25° C./60% RH (open) for 1 week, respectively. The physical and chemical stability of the samples were tested by XRPD and HPLC.

[3] = Evaluation of hygroscopicity by Dynamic Moisture Sorption Analyzer (DVS), with XRPD before and after DVS; conditions: for hygroscopicity (in words) / moisture adsorption: DVS, 80% RH/25° C.; for moisture adsorption: humidity cycle 0% RH-95% RH-0% RH; for crystalline form after the DVS test (XRPD): XRPD of the sample after the DVS test
[4] = Suspension competitive agitation test between anhydrous crystalline forms I, III, XV, XVII and XVIII (IPA, MTBE; solid tested by XRPD); conditions: solid by XRPD after suspension stirring 3 days

| Structure (SMILES) | stability of crystalline form III and crystalline form XVIII relative to each other ([1]; room temperature) | interconversion rate of crystalline form III and crystalline form XVIII ([1]; room temperature) | chemical stability: degradation (HPLC purity) [2] | physical stability: crystalline form (XRPD) [2] | purity (area %) ([2]; 25° C./60% RH 1 week (open)) | purity (area %) ([2]; 40° C./75% RH 1 week (open)) | purity (area %) ([2]; 80° C. 24 hours (sealed)) | purity (area %) ([2]; starting point) | hygroscopicity (in words) [3] | moisture adsorption [3] [%] | crystalline form after the DVS test (XRPD) [3] | other results |
| --- | --- | --- | --- | --- | --- | --- | --- | --- | --- | --- | --- | --- |
| O=C(NS(=O)(=O)c1ccc(NCC2COCCO2)c([N+](=O)[O-])c1)c1ccc(N2CCN(CC3=C(c4ccc(Cl)cc4)CC4(CCC4)CC3)CC2)cc1Oc1cnc2[nH]ccc2c1 (single isomer, unassigned) [crystalline form III] | similar | relatively slow | did not degrade | did not change | 98.66 | 98.67 | 98.64 | 98.65 | slight hygroscopicity | 0.9 | did not change | – |
| O=C(NS(=O)(=O)c1ccc(NC[C@H]2COCCO2)c([N+](=O)[O-])c1)c1ccc(N2CCN(CC3=C(c4ccc(Cl)cc4)CC4(CCC4)CC3)CC2)cc1Oc1cnc2[nH]ccc2c1 [listing 1 of 2 here] | – | – | – | – | – | – | – | – | – | – | – | Crystalline Form ([4]; IPA, 50° C.): Crystalline Form III; Crystalline Form ([4]; IPA, 70° C.): Crystalline Form III; Crystalline Form ([4]; IPA, room temperature): Crystalline Form III; Crystalline Form ([4]; MTBE, 50° C.): Crystalline Form III; Crystalline Form ([4]; MTBE, 70° C.): Crystalline Form III; Crystalline Form ([4]; MTBE, room temperature): Crystalline Form III |
| O=C(NS(=O)(=O)c1ccc(NC[C@H]2COCCO2)c([N+](=O)[O-])c1)c1ccc(N2CCN(CC3=C(c4ccc(Cl)cc4)CC4(CCC4)CC3)CC2)cc1Oc1cnc2[nH]ccc2c1 [listing 2 of 2 here] | – | – | – | – | – | – | – | – | – | – | – | Crystalline Form ([1]; EtOAc, 50° C.): Crystalline Form III; Crystalline Form ([1]; EtOAc, 70° C.): Crystalline Form III; Crystalline Form ([1]; EtOAc, room temperature): Crystalline Form V; Crystalline Form ([1]; MTBE, 50° C.): Crystalline Form III; Crystalline Form ([1]; MTBE, 70° C.): Crystalline Form III; Crystalline Form ([1]; n-Butyl alcohol, 50° C.): Crystalline Form III; Crystalline Form ([1]; n-Butyl alcohol, 70° C.): Crystalline Form III |
| O=C(NS(=O)(=O)c1ccc(NCC2COCCO2)c([N+](=O)[O-])c1)c1ccc(N2CCN(CC3=C(c4ccc(Cl)cc4)CC4(CCC4)CC3)CC2)cc1Oc1cnc2[nH]ccc2c1 (single isomer, unassigned) [crystalline form XVIII] | similar | relatively slow | did not degrade | did not change | 99.60 | 99.61 | 99.61 | 99.48 | almost no moisture absorption | 0.04 | did not change | – |
